Measured values published in US9545105B2, “1-(heterocyclic carbonyl) piperidines” (BAYER INTELLECTUAL PROPERTY GMBH, priority 2010, dated 2017).

Tests used:
[1] = log P by HPLC on reversed-phase column (C 18), EEC Directive 79/831 Annex V.A8; format: physicochemical; details: 40° C., 0.1% aqueous formic acid and acetonitrile; for logP: HPLC on reversed-phase column (C 18), linear gradient 10% to 90% acetonitrile; for chromatographic logP: reversed-phase HPLC column (C 18), HPLC
Experimental: In table 1, the log P values were determined in accordance with EEC Directive 79/831 Annex V.A8 by HPLC (High Performance Liquid Chromatography) on a reversed-phase column (C 18), using the method described below: Temperature: 40° C.; Mobile phases: 0.1% aqueous formic acid and acetonitrile; linear gradient from 10% acetonitrile to 90% acetonitrile. Calibration was carried out using unbranched alkan-2-ones (comprising 3 to 16 carbon atoms) with known log P values (determination of the log P values by the retention times using linear interpolation between two successive alkanones). lambda-max-values were determined using UV-spectra from 200 nm to 400 nm and the peak values of the chromatographic signals.

[2] = test system: Pyrenophora teres; experiment: In vivo preventive test on Pyrenophora teres (barley); details: 500 ppm of active ingredient, evaluated 7-9 days after inoculation
Experimental: Solvent: 49 parts by weight of N,N-dimethylformamide Emulsifier: 1 part by weight of alkylaryl polyglycol ether To produce a suitable preparation of active compound, 1 part by weight of active compound is mixed with the stated amounts of solvent and emulsifier, and the concentrate is diluted with water to the desired concentration. To test for preventive activity, young plants are sprayed with the preparation of active compound at the stated rate of application. One day after this treatment, the plants are inoculated with an aqueous spore suspension of Pyrenophora teres. The plants remain for 48 hours in an incubation cabinet at 22° C. and a relative atmospheric humidity of 100%. Then the plants are placed in a greenhouse at a temperature of approximately 20° C. and a relative atmospheric humidity of approximately 80%. The test is evaluated 7-9 days after the inoculation. 0% means an efficacy which corresponds to that of the untreated control while an efficacy of 100% means that no disease is observed.

SMILES | logP [1] | Efficacy [2] [%] | chromatographic logP [1]
CCc1noc(C)c1C(=O)N1CCCCC1c1ccccc1C (centres unmarked) [Example 2] | 3.19 |  | 
Cc1cc(C(=O)N2CCCCC2c2ccccc2C)c(C)o1 (centres unmarked) [Example 3] | 3.73 | 80 | 
Cc1cc(C)cc(C2CCCCN2C(=O)c2cc(C)oc2C)c1 (centres unmarked) [Example 12] | 4.34 | 90 | 
Cc1cc(C)cc(C2CCCCN2C(=O)c2nn(C)cc2I)c1 (centres unmarked) [Example 13] | 3.55 |  | 
Cc1cc(C)cc(C2CCCCN2C(=O)c2cn(C)nc2[N+](=O)[O-])c1 (centres unmarked) [Example 14] | 3.09 |  | 
Cc1cc(C)cc(C2CCCCN2C(=O)c2nnsc2C)c1 (centres unmarked) [Example 15] | 3.60 |  | 
Cc1cc(C)cc(C2CCCCN2C(=O)c2snnc2C(C)C)c1 (centres unmarked) [Example 16] | 4.59 |  | 
Cc1cc(C)cc(C2CCCCN2C(=O)c2snnc2C)c1 (centres unmarked) [Example 17] | 3.71 |  | 
Cc1cc(C)cc(C2CCCCN2C(=O)c2nn(C)cc2Br)c1 (centres unmarked) [Example 18] | 3.55 |  | 
Cc1cc(C)cc(C2CCCCN2C(=O)c2nn(C)cc2Cl)c1 (centres unmarked) [Example 19] | 3.44 |  | 
CCn1nc(C)c(C(=O)N2CCCCC2c2cc(C)cc(C)c2)c1F (centres unmarked) [Example 20] | 3.67 |  | 
Cc1cc(C)cc(C2CCCCN2C(=O)c2scnc2Cl)c1 (centres unmarked) [Example 21] | 3.73 |  | 
Cc1cc(C)cc(C2CCCCN2C(=O)c2c(C(F)(F)F)cn(C)c2Cl)c1 (centres unmarked) [Example 22] | 4.59 |  | 
Cc1cc(C)cc(C2CCCCN2C(=O)c2sc(Cl)nc2Cl)c1 (centres unmarked) [Example 23] | 4.86 |  | 
Cc1cc(C)cc(C2CCCCN2C(=O)c2cn(C)nc2C(Cl)Cl)c1 (centres unmarked) [Example 24] | 3.85 |  | 
Cc1cc(C)cc(C2CCCCN2C(=O)c2sc(Cl)nc2C)c1 (centres unmarked) [Example 25] | 4.49 |  | 
Cc1cc(C)cc(C2CCCCN2C(=O)c2sc(Br)nc2C)c1 (centres unmarked) [Example 26] | 4.51 |  | 
Cc1cc(C)cc(C2CCCCN2C(=O)c2sc(C)nc2C)c1 (centres unmarked) [Example 27] | 3.44 |  | 
Cc1cc(C)cc(C2CCCCN2C(=O)c2sc(C)nc2Cl)c1 (centres unmarked) [Example 28] | 4.06 |  | 
Cc1cc(C)cc(C2CCCCN2C(=O)c2scnc2C)c1 (centres unmarked) [Example 29] | 3.25 |  | 
CCn1ncc(Cl)c1C(=O)N1CCCCC1c1cc(C)cc(C)c1 (centres unmarked) [Example 32] | 4.34 |  | 
Cc1cc(C)cc(C2CCCCN2C(=O)c2c(C)oc(C)c2Br)c1 (centres unmarked) [Example 33] | 4.93 |  | 
Cc1cc(C)cc(C2CCCCN2C(=O)c2ccsc2I)c1 (centres unmarked) [Example 35] | 4.21 |  | 
CCc1noc(C)c1C(=O)N1CCCCC1c1ccccc1Cl (centres unmarked) [Example 38] | 3.29 |  | 
Cc1cc(C(=O)N2CCCCC2c2ccccc2Cl)c(C)o1 (centres unmarked) [Example 39] | 3.89 |  | 

SMILES | logP [1] | Efficacy [2] [%] | chromatographic logP [1]
CCc1noc(C)c1C(=O)N1CCCCC1c1cccc(Cl)c1 (centres unmarked) [Example 45] | 3.48 |  | 
Cc1cc(C(=O)N2CCCCC2c2cccc(Cl)c2)c(C)o1 (centres unmarked) [Example 46] | 4.04 | 90 | 
Cn1nc(C(F)F)c(C(=S)N2CCCCC2c2cccc(Cl)c2)c1Cl (centres unmarked) [Example 50] | 4.31 | 100 | 
CCc1noc(C)c1C(=O)N1CCCCC1c1ccc(Cl)cc1 (centres unmarked) [Example 52] | 3.51 |  | 
CCc1noc(C)c1C(=O)N1CCCCC1c1ccc2c(c1)OCCO2 (centres unmarked) [Example 61] | 2.82 |  | 
Cc1cc(C(=O)N2CCCCC2c2ccc3c(c2)OCCO3)c(C)o1 (centres unmarked) [Example 62] | 3.25 |  | 
CCc1nn(C)c(F)c1C(=O)N1CCCCC1c1ccc2c(c1)OCCO2 (centres unmarked) [Example 63] | 2.66 |  | 
Cc1nn(C)c(F)c1C(=O)N1CCCCC1c1ccc2c(c1)OCCO2 (centres unmarked) [Example 64] | 2.39 | 95 | 
Cn1nc(C(F)F)c(C(=O)N2CCCCC2c2ccc3c(c2)OCCO3)c1Cl (centres unmarked) [Example 66] | 2.99 |  | 
CCc1noc(C)c1C(=O)N1CCCCC1c1cc(OC)cc(OC)c1 (centres unmarked) [Example 69] | 3.02 |  | 
COc1cc(OC)cc(C2CCCCN2C(=O)c2cc(C)oc2C)c1 (centres unmarked) [Example 70] | 3.48 | 80 | 
CCc1noc(C)c1C(=O)N1CCCCC1c1cccc(Cl)c1Cl (centres unmarked) [Example 74] | 3.73 |  | 
Cc1nn(C)c(Cl)c1C(=O)N1CCCCC1c1ccc(Cl)cc1Cl (centres unmarked) [Example 75] | 3.60 |  | 
CCc1noc(C)c1C(=O)N1CCCCC1c1ccc(Cl)cc1Cl (centres unmarked) [Example 77] | 3.89 |  | 
Cc1cc(C(=O)N2CCCCC2c2ccc(Cl)cc2Cl)c(C)o1 (centres unmarked) [Example 79] | 4.54 | 80 | 
Cc1cc(C(=O)N2CCCCC2c2cc(Cl)ccc2Cl)c(C)o1 (centres unmarked) [Example 84] | 4.36 | 90 | 
CCc1noc(C)c1C(=O)N1CCCCC1c1cc(Cl)ccc1Cl (centres unmarked) [Example 85] | 3.78 |  | 
CCc1noc(C)c1C(=O)N1CCCCC1c1ccccc1Br (centres unmarked) [Example 89] | 3.35 |  | 
Cc1cc(C(=O)N2CCCCC2c2ccc(Br)cc2)c(C)o1 (centres unmarked) [Example 100] | 4.16 | 70 | 
CCc1noc(C)c1C(=O)N1CCCCC1c1ccc(Br)cc1 (centres unmarked) [Example 101] | 3.64 |  | 
CCc1nn(C)c(F)c1C(=O)N1CCCCC1c1ccc(Br)cc1 (centres unmarked) [Example 102] | 3.51 | 100 | 
COc1cc(C2CCCCN2C(=O)c2c(C)nn(C)c2F)cc(OC)c1OC (centres unmarked) [Example 106] | 2.21 |  | 
CCc1noc(C)c1C(=O)N1CCCCC1c1cc(OC)c(OC)c(OC)c1 (centres unmarked) [Example 107] | 2.64 |  | 
COc1cc(C2CCCCN2C(=O)c2cc(C)oc2C)cc(OC)c1OC (centres unmarked) [Example 108] | 3.04 |  | 
CCc1nn(C)c(F)c1C(=O)N1CCCCC1c1cc(OC)c(OC)c(OC)c1 (centres unmarked) [Example 109] | 2.49 |  | 

SMILES | logP [1] | Efficacy [2] [%] | chromatographic logP [1]
Cc1cc(C(=O)N2CCCCC2c2cccc(Oc3ccccc3)c2)c(C)o1 (centres unmarked) [Example 111] | 4.65 |  | 
CCc1noc(C)c1C(=O)N1CCCCC1c1ccc2ccccc2c1 (centres unmarked) [Example 119] | 3.76 |  | 
Cc1cc(C(=O)N2CCCCC2c2ccc(Br)s2)c(C)o1 (centres unmarked) [Example 127] | 4.29 |  | 
CCn1nc(C)c(C(=O)N2CCCCC2c2ccc(Br)s2)c1F (centres unmarked) [Example 128] | 3.55 |  | 
CCc1noc(C)c1C(=O)N1CCCCC1Cc1ccccc1 (centres unmarked) [Example 130] | 3.11 |  | 
CCc1nn(C)c(F)c1C(=O)N1CCCCC1Cc1ccccc1 (centres unmarked) [Example 131] | 2.92 | 100 | 
Cc1nc(C(F)F)c(C(=O)N2CCCCC2Cc2ccccc2)s1 (centres unmarked) [Example 133] | 3.17 |  | 
Cc1cc(C(=O)N2CCCCC2Cc2cccc(F)c2)c(C)o1 (centres unmarked) [Example 152] | 3.59 |  | 
COc1ccccc1CC1CCCCN1C(=O)c1cc(C)oc1C (centres unmarked) [Example 158] | 3.63 |  | 
COc1ccccc1CC1CCCCN1C(=O)c1sc(C)nc1C(F)F (centres unmarked) [Example 159] | 3.33 | 90 | 
CCC(c1ccccc1Cl)C1CCCCN1C(=O)c1c(C(F)F)nn(C)c1Cl (centres unmarked) [Example 161] | 4.44 | 94 | 
Cc1nc(C(F)F)c(C(=O)N2CCCCC2Cc2cccc(C(F)(F)F)c2)s1 (centres unmarked) [Example 167] | 3.70 |  | 
Cc1cc(C(=O)N2CCCCC2Cc2cccc(C(F)(F)F)c2)c(C)o1 (centres unmarked) [Example 168] | 4.06 |  | 
Cc1nc(C(F)F)c(C(=O)N2CCCCC2Cc2cccc3ccccc23)s1 (centres unmarked) [Example 170] | 3.76 |  | 
Cn1nc(C(F)F)c(C(=O)N2CCCCC2Cc2cccc3ccccc23)c1F (centres unmarked) [Example 171] | 3.65 |  | 
CCc1noc(C)c1C(=O)N1CCCCC1CCc1ccccc1 (centres unmarked) [Example 174] | 3.44 |  | 
Cc1cc(C(=O)N2CCCCC2CCc2ccccc2)c(C)o1 (centres unmarked) [Example 175] | 3.92 |  | 
Cc1nc(C(F)F)c(C(=O)N2CCCCC2CCc2ccccc2)s1 (centres unmarked) [Example 178] | 3.52 |  | 
Cc1nc(C(F)F)c(C(=O)N2CCCCC2CCc2cccs2)s1 (centres unmarked) [Example 192] | 3.35 |  | 
Cc1cc(C(=O)N2CCCCC2CCc2cccs2)c(C)o1 (centres unmarked) [Example 193] | 3.79 |  | 
Cc1ccc(C2CCCC(C)N2C(=O)c2c(C(F)F)nn(C)c2F)cc1 (centres unmarked) [Example 197] |  |  | 3.55
Cc1ccc(C2CCCC(C)N2C(=O)c2c(C(F)F)nn(C)c2Cl)cc1 (centres unmarked) [Example 198] |  |  | 3.73
Cc1ccc(C2CCCC(C)N2C(=O)c2cn(C)nc2C(F)F)cc1 (centres unmarked) [Example 199] |  |  | 3.17
